Measured values published in patent publication US20100099122A1 (priority 2008, published 2010).
Entries after “also recorded” stand apart in the source; their conditions may differ. Like-named read-outs stand apart in the source and are kept apart here.

Assays:
[1] = system: H. capsulatum Ggt1 (GSH-FeR); assay type: biochemical, Histoplasma capsulatum; settings: inhibitor 0.1 mM, 15 min pretreatment, then removed by diafiltration, GSH-FeR activity
[2] = molecular target: H. capsulatum Ggt1 (Histoplasma ohiense, UniProt A0ACF1AEB1); assay type: biochemical
[3] = system: H. capsulatum Ggt1 (GSH-FeR); settings: cited from earlier work

Row | Compound | Fe^3+ reduction catalyzed by γ-Glutamyltransferase (Ggt1), effect of inhibitor [1] | Glu transfer catalyzed by γ-Glutamyltransferase (Ggt1), effect of inhibitor [2] | other results
1 | N[C@H](C(=O)O)[C@@H]1CC(Cl)=NO1 [Acivicin, acivicin] | Inhibition | completely abolished; also recorded: Inhibition | Fe^3+ reduction catalyzed by γ-Glutamyltransferase (Ggt1), effect of inhibitor ([1]; listed as acivicin): completely abolished
2 | [Ga] [gallium] | strong inhibitory effect; also recorded: Inhibition | no inhibitory action; also recorded: No effect | inhibition of GSH-FeR activity [3]: reversibly inhibited
3 | [Al] [Aluminum, aluminum] | strong inhibitory effect; also recorded: Inhibition | no inhibitory action; also recorded: No effect | inhibition of GSH-FeR activity [3]: reversibly inhibited
4 | [N-]=[N+]=CC(=O)CC[C@H](N)C(=O)O [DON, 6-diazo-5-oxo-L-norleucine] | completely abolished; also recorded: Inhibition | completely abolished; also recorded: Inhibition | 
5 | N[C@@H](CS)C(=O)NCC(=O)O [cysteinylglycine] |  |  | ability to reduce iron compared to the activity of 1 mM GSH (1 mM): over 117 fold; iron reduction activity (ferrous iron generated) (0.5-1 mM): generated measurable amounts of ferrous iron; iron reduction by cysteinylglycine alone (pH 5.5): 2.85±0.08 μmol of Fe^2+ min^−1 (mmol CysGly)^−1
6 | N[C@@H](CCC(=O)Nc1ccc([N+](=O)[O-])cc1)C(=O)O [GpNA, γ-glutamyl-p-nitroanilide] |  |  | Km ([2]; read-out: apparent optimal Km for GpNA, glutamyl transfer reaction): ~840 µM; Km ([2]; read-out: apparent optimal Km for GpNA, hydrolysis): ~750 µM
7 | serine/borate complex [SBC] | completely abolished; also recorded: Inhibition | completely abolished; also recorded: Inhibition | 
